O=C(O)[C@@H]1Cc2ccccc2N1
Settings	solubility (mole fraction)
in ethanol, 283.15 K	0.00168
in ethanol, 288.15 K	0.00216
in ethanol, 292.85 K	0.00284
in ethanol, 298.25 K	0.00358
in ethanol, 303.05 K	0.00454
in ethanol, 308.15 K	0.00572
in ethanol, 313.45 K	0.00721
in ethanol, 318.55 K	0.00895
in ethanol, 323.35 K	0.0107
in ethanol, 328.75 K	0.0138
in ethanol, 333.25 K	0.0159
in ethanol, 338.25 K	0.0186
in ethanol, 343.15 K	0.022
in isopropanol, 283.15 K	0.000941
in isopropanol, 288.15 K	0.0015
in isopropanol, 293.25 K	0.00197
in isopropanol, 298.15 K	0.0028
in isopropanol, 303.35 K	0.00387
in isopropanol, 307.95 K	0.00504
in isopropanol, 313.05 K	0.00685
in isopropanol, 318.65 K	0.0093
in isopropanol, 323.55 K	0.0109
in isopropanol, 328.35 K	0.0144
in isopropanol, 333.15 K	0.0169
in isopropanol, 338.35 K	0.0202
in isopropanol, 343.05 K	0.0241
in isopropanol, 348.75 K	0.0299
in isopropanol, 353.15 K	0.0369
in methanol, 283.15 K	0.00436
in methanol, 288.25 K	0.00543
in methanol, 292.75 K	0.00647
in methanol, 298.15 K	0.00809
in methanol, 302.95 K	0.0103
in methanol, 308.05 K	0.0122
in methanol, 313.15 K	0.0145
in methanol, 318.25 K	0.0166
in methanol, 323.15 K	0.019
in methanol, 328.55 K	0.0201
in methanol, 333.15 K	0.026
in n-butanol, 283.15 K	0.00228
in n-butanol, 288.35 K	0.00316
in n-butanol, 293.05 K	0.00395
in n-butanol, 298.25 K	0.00481
in n-butanol, 303.55 K	0.00592
in n-butanol, 308.05 K	0.00708
in n-butanol, 313.65 K	0.0083
in n-butanol, 318.45 K	0.0102
in n-butanol, 323.25 K	0.0111
in n-butanol, 328.05 K	0.0131
in n-butanol, 332.95 K	0.0144
in n-butanol, 338.15 K	0.0162
in n-butanol, 343.55 K	0.0186
in n-butanol, 348.95 K	0.0217
in n-butanol, 353.05 K	0.0237
in n-butanol, 358.15 K	0.0268
in n-propanol, 283.15 K	0.000819
in n-propanol, 288.25 K	0.00105
in n-propanol, 293.05 K	0.00153
in n-propanol, 298.35 K	0.00211
in n-propanol, 303.15 K	0.00284
in n-propanol, 308.45 K	0.0039
in n-propanol, 313.15 K	0.00502
in n-propanol, 318.75 K	0.00673
in n-propanol, 323.25 K	0.00835
in n-propanol, 328.15 K	0.0107
in n-propanol, 333.05 K	0.0135
in n-propanol, 338.15 K	0.0167
in n-propanol, 343.55 K	0.0214
in n-propanol, 348.65 K	0.0261
in n-propanol, 353.15 K	0.0304
in n-propanol, 358.15 K	0.0397
in water, 283.15 K	0.000308
in water, 288.35 K	0.000309
in water, 292.25 K	0.000316
in water, 297.45 K	0.000322
in water, 302.15 K	0.000335
in water, 308.55 K	0.000365
in water, 313.15 K	0.000401
in water, 318.25 K	0.00046
in water, 323.45 K	0.000547
in water, 328.65 K	0.000673
in water, 333.15 K	0.000825
in water, 338.55 K	0.00108
in water, 342.95 K	0.00138
in water, 348.75 K	0.00196
in water, 353.15 K	0.0026
in water, 358.15 K	0.00366

Source: BigSolDB 2.1
